Like-named read-outs stand apart in the source and are kept apart here.
B1: CghSAMPa (full length stable antimicrobial peptide) (peptide)
chain: MCCNRGKNVSIENLHQGFTHIFESTFESTEGVAEYVSHPSHVEYANLFLANLEKVLVIDYKPTTVRV
notes: In the native gel it ran as polymers, 'likely hexamers based on the molecular weight'; also called MaSSAMP; Syd72SSAMP1
B2: CghSAMPa helix 2 (peptide)
peptide: SHVEYANLFLANLEKVLVIDYK
notes: 22-residue fragment of CghSAMPa holding only the second alpha-helix; In the native gel it ran as polymers, likely hexamers; also called MaSSAMP-helix2; SAMP-helix 2

Legend:
[1] = tested on: defense marker genes, including PR2, PAL, and CHI; assay type: in vivo; conditions: 10 μM spray, Carrizo seedlings
[2] = tested on: Liberibacter crescens; assay type: cell-based; conditions: Liberibacter crescens 10^6/mL; for anti-bacterial activity (viability staining, confocal microscopy): 30 μM, 2 hours
[3] = tested on: E. coli; assay type: cell-based; conditions: compared to L. crescens; concentrations shown in FIG. 5
[4] = tested on: B. thuringiensis; assay type: cell-based; conditions: compared to L. crescens; concentrations shown in FIG. 5
[5] = biological target: the molecule itself; assay: native PAGE, self-association

Row | Molecule | induction of defense response (PR2, PAL, CHI expression normalized to Ubiquitin) ([1]; 1 day post-treatment) | duration of defense gene induction ([1]; time course up to 7 days post treatment) | anti-bacterial activity (viability staining, confocal microscopy) [2] | anti-bacterial activity (viability staining, confocal microscopy) ([2]; listed as helix 2) | anti-bacterial activity compared to full length CghSAMPa (viability staining) ([2]; 5 hours, same concentration or triple dosages of helix 2 vs full length) | tolerance of E. coli to SAMP treatment [3] | tolerance of B. thuringiensis to SAMP treatment [4] | binding result [5]
1 | SHVEYANLFLANLEKVLVIDYK [CghSAMPa helix 2, polypeptide containing CghSAMPa helix 2] | induced a defense response | maintained for the 7-day time period | plays an important role in anti-bacterial activity | found to be a functional SAMP | retained much of the anti-bacterial activity of full length SAMP | – | – | –
2 | B1 | – | – | – | – | – | more tolerant of SAMP treatment compared to L. crescens | highly tolerant | binds
3 | B2 | – | – | – | – | – | – | – | binds

From patent US20240109941A1 (University of California, published 2024)
